Assay [1] has as its system HSC-T6 cells. As to the kind of experiment: Cytotoxicity on HSC-T6 cells (experiment 3). Format: cell-based, rat. To be noted: read-out: Experiment 3 IC50 (T). The text has this: Cytotoxicity of all cucurbitacin analogs was additionally measured in experiment 3 (Table 8).
In assay [2] the test system is HSC-T6 cells. As to the kind of experiment: Serum-driven HSC-T6 proliferation, experiment 2 (24 h, starved/quiescent cells). Format: cell-based, rat. The settings on record: HSC-T6, 24 h, starved (quiescent) cells; read-out: Experiment 2 EC50. As for the experimental part:
To overcome this problem, the amount of incubation time was increased to 24 h, and cucurbitacin activity measured on starved (Exp. 2) or proliferative (Exp. 3) cells (Table 8). Cells turned quiescent when serum was not supplemented for one day (Exp. 2). Activity of a few compounds was monitored on quiescent cells, and their activity compared to the ones measured on proliferating cells (Exp. 3).
We established several experimental conditions such as 4 hours of incubation time with cucurbitacin, and 2 day cell incubation with fresh media after challenging with cucurbitacin (Exp. 1). Other experiments involved addition of cucurbitacin for 24 hours over starved cells (Exp. 2) vs. proliferating cells (Exp. 3), and one day incubation of cells with fresh media after challenge. The 4 hour incubation period with cucurbitacin triggered anti-proliferation effect. This effect, however, was hindered by a second cycle of cell proliferation during the two-day cell growth period (see silybin, E and I glucosides, and for I-nPr). […] Because of that, the challenge time was increased to 24 hours (Exp. 2 and 3).
In experiment 3, only 40% of the cells divided. The ratio of EC50 values for exp. 2 and exp. 3 varied between 3.6 and 12.7. This may indicate differential cytotoxicity of silybin and cucurbitacin analogs over quiescent and active stellate cells. In other words, compounds show higher anti-proliferative activity on active cells than on quiescent cells.

A further assay deals with HepG2 cells. As to the kind of experiment: cells. To be noted: for EC50: read-out: EC50 cytoprotection, Table 7, HepG2 against CCl4 toxicity, estimated. The source says: Experimental conditions were standardized on silybin. […]
The ratio of IC50-to-EC50 (hereafter T/A) is also indicated in this table, which gives the margin between toxic and cytoprotective concentrations.

Assay [3] has as its system HSC-T6 cells. As to the kind of experiment: Serum-driven HSC-T6 proliferation, experiment 1 (4 h challenge, two days drug-free growth). The assay is classed as cell-based, rat. To be noted: for EC50: HSC-T6, 4 h challenge, then two days drug-free media.
The conditions of assay [4]: in vivo; cited from earlier work.
The next assay deals with hyaluronidase (Bos taurus, UniProt Q2YDK3). As to the kind of experiment: Anti-Hyaluronidase Assay. Format: biochemical. To be noted: up to 71.68 mM. The source says: Cucurbitacin anti-inflammatory activity was monitored by the Anti-Hyaluronidase Assay (Facino et al., Il Farmaco 48: 1447-1461, 1993 and Linker, A., Hyaluronidase. In: Methods of enzymatic analysis. Vol. 4., Bergmeyer, H. U. (Editor), Verlag Chemie GmbH, Berlin, 256-262, 1984). This assay was validated using the standard compound phenylbutazone.

Assay [5] is described as follows: DPPH* Stable Free Radical Scavenging Assay. To be noted: at 50 μM. How it is done:
Cucurbitacin antioxidant activity was studied first by the DPPH* Stable Free Radical Scavenging Assay (Cotelle et al., Free radical Biology & Medicine 20(1): 35-43, 1996). Experimental conditions were optimized on the standard compound ascorbic acid. Data indicated 30% activity at 50 μM concentration, and 100% activity at 100 μM for ascorbic acid. While the original assay required 10 minutes incubation time for the reaction to occur, this time was increased up to 30 minutes in case cucurbitacin were reacting slower than other reagents.

A short description of assay [6]: ABTS*+ Radical Cation Decolorization Assay. The settings on record: at 50 μM, 100 μM and 1.8 mM, up to 2 hours. How it is done: Cucurbitacin B activity was monitored at 50 μM, 100 μM, and 1.8 mM. The time interval was expanded up to 2 hours in case cucurbitacin B was reacting slowly.

Entries after “also recorded” stand apart in the source; their conditions may differ.

Chain of hyaluronidase (Q2YDK3 entry or part of it): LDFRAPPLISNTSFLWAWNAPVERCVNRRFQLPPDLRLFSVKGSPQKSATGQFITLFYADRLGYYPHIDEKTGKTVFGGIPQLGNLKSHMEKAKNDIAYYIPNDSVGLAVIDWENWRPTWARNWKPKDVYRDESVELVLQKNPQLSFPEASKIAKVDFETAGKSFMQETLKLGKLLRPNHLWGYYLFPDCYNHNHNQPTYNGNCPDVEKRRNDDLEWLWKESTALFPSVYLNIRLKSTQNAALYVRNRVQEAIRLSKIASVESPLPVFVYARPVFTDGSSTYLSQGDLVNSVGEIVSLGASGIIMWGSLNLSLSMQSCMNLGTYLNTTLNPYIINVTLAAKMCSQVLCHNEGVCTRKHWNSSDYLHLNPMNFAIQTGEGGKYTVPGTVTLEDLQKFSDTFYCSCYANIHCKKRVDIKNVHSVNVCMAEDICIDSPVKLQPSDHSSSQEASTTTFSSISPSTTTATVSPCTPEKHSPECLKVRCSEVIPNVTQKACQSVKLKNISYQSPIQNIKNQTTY

Turning to `CC(=O)OC(C)(C)/C=C/C(=O)[C@](C)(O)[C@H]1[C@H](O)C[C@@]2(C)[C@@H]3CC=C4[C@@H](C=C(O[C@@H]5O[C@H](CO)[C@@H](O)[C@H](O)[C@H]5O)C(=O)C4(C)C)[C@]3(C)C(=O)C[C@]12C` [E-Gluc, cucurbitacin E glucoside], in the assay on HSC-T6 cells [1], the IC50 was found to be 102 µM. For the same compound, the EC50 was 20 µM with HSC-T6 cells [2] and 45.3 µM with HepG2 cells. Moreover, the “cytoprotection on HepG2 cells” value with HepG2 cells (at 6.25% of IC50, against CCl4) is reported as −2.36 ± 1.08; in the assay on HepG2 cells (at 12.5% of IC50, against CCl4), 17.96 ± 1.14; with HepG2 cells (at 20% of IC50, against CCl4) it was 49.44 ± 0.29; with HepG2 cells (at 50% of IC50, against CCl4), 33.92 ± 2.92. For the same compound, in the assay on HSC-T6 cells [3] (Experiment 1, FIG. 7, 150 μM), the anti-proliferation activity result is “about 38%”. Further, the “Experiment 1 anti-proliferation activity” value with HSC-T6 cells [3] (measured at 100 μM) is listed as “˜46%^a^”.
With Cucurbitacin E-Me ether, the IC50 with HSC-T6 cells [1] was 2.8 µM. The figures for the EC50 in the assay with HepG2 cells and in the assay on HSC-T6 cells [3] were 2.4 µM and 3.05 µM, respectively.
On to cucurbitacin E, for which, in assay [4], the “protective and preventive activity” value is “significantly reducing serum enzymes level, steatosis, inflammation, and experimental cholestasis”. Further, the “cytoprotection on HepG2 cells” value with HepG2 cells (at 6.25% of IC50, against CCl4) amounted to 12.41 ± 0.78; in the assay with HepG2 cells (at 12.5% of IC50, against CCl4), 21.72 ± 0.75; in the assay with HepG2 cells (at 20% of IC50, against CCl4), 49.21 ± 1.73; in the assay with HepG2 cells (at 50% of IC50, against CCl4), 80.55 ± 6.80. For the same compound, the EC50 in the assay on HepG2 cells was 3.2 µM; with HSC-T6 cells [3], 0.86 µM.
As for `CC(=O)OC(C)(C)/C=C/C(=O)[C@](C)(O)[C@H]1[C@H](O)C[C@@]2(C)[C@@H]3CC=C4[C@H](C[C@H](O)C(=O)C4(C)C)[C@]3(C)C(=O)C[C@]12C` [B, cucurbitacin B], the anti-hyaluronidase activity entry on hyaluronidase is reported as “no activity; also recorded: did not demonstrate anti-hyaluronidase activity”. The DPPH activity entry in assay [5] is given as “did not indicate any activity”. In addition, in the assay with HSC-T6 cells [1], the IC50 amounted to 4.4 µM. The “protective and preventive activity” value in assay [4] is “significantly reducing serum enzymes level, steatosis, inflammation, and experimental cholestasis”. Besides, the “cytoprotection on HepG2 cells” value is reported as 12.45 ± 1.11 with HepG2 cells (at 6.25% of IC50, against CCl4); 25.25 ± 1.36 in the assay on HepG2 cells (at 12.5% of IC50, against CCl4); 34.92 ± 2.76 in the assay with HepG2 cells (at 20% of IC50, against CCl4); 60.01 ± 0.80 with HepG2 cells (at 50% of IC50, against CCl4). In addition, the values for the concentration for a half-maximal effect (EC50) in the assay with HepG2 cells and in the assay on HSC-T6 cells [3] were 10.5 µM and 1.18 µM, respectively. Besides, the ABTS activity result in assay [6] is “No activity was observed”.

Source of the values: US20070049538A1, “METHODS FOR USING CUCURBITACIN COMPOUNDS” (SOUTH DAKOTA STATE UNIVERSITY, priority 2005, published 2007).
